{"source": "patent US6573296B2", "about": "“Therapeutic quassinoid preparations with antineoplastic, antiviral, and herbistatic activity” (priority 1997, dated 2003)", "key": {"NADH oxidase [1]": {"test_system": "NADH oxidase", "assay": "NADH oxidase activity of CFK microsomes from infected cells", "settings": "Plasma membrane-free CFK microsomes (Golgi-enriched) from infected cells"}, "NADH oxidase [2]": {"test_system": "NADH oxidase", "assay": "NADH oxidase activity of rat liver cell fractions", "settings": "for EC50: read-out: ED50, inhibition of NADH oxidase activity"}, "Sorghum (DeKalb 18)": {"test_system": "Sorghum (DeKalb 18)", "assay": "growth of plants in soil after foliar application", "type": "in vivo", "settings": "twenty days after treatment, 10 μl of 1:1000/half pot; control plants 16 cm", "procedure": "(§1) To evaluate the growth phenotype of a set of plants, a 1 mg concentration of 100 Mm (solution QD-2). This solution was diluted serially with water with or without Triton X-100, ethanol or DMSO and used directly for measurement of effects on seed germination or applied using a microliter syringe to foliage to evaluate growth effects on plants.\nSorghum (DeKalb 18) plants growing in soil were treated as for Arabadopsis thaliani above after 6 days of germination when the plants were about 5 cm high (as the leaf emerged from the coleoptile sheath). Growth was retarded. Twenty days after treatment, control plants were 16 cm high and treated plants were 12 cm high. The application rate was 10 µl of 1:1000/half pot=2.5×10^−3 oz/A."}, "C38": {"test_system": "C38", "assay": "soft agar disk diffusion zone of inhibition assay", "type": "cell-based, mice", "settings": "25 ug/disk"}, "[3]": {"test_system": "leukemia and solid tumor cells", "assay": "in vitro differential cytotoxicity, solid tumor versus leukemia", "type": "cell-based", "settings": "solid tumor versus leukemia zones"}, "[4]": {"test_system": "Arabadopsis (var. Columbia)", "assay": "growth of plants in soil after foliar application", "type": "in vivo", "procedure": "as §1\nWhen applied to Arabadopsis (var. Columbia) growing in soil in 4 inch plastic pots, the glaucarubolone preparation was herbicidal at dilutions of 1:100 and 1:1000 (10 μ1/half pot). Plants were treated after 10 days of germination. At a dilution of 1:10,000, the plants were not killed but growth was completely stopped for about 3 weeks. Growth resumed about 30 days after treatment. […] The calculated application rate was 2.5×10^−3 oz/A.\nIn an experiment with Arabadopsis where the quassinoid preparation was administered in ethanol, herbicidal activity was observed down to a dilution of 1:10^4 (2.5×10^−5 oz/A) and a dilution of 1:10^5 (2.5×10^−6 oz/A) appeared to stop growth for at least 30 days. All plants were watered from the bottom to reduce surface spreading of the material. The inhibited phenotype includes an impaired ability of the plants to grow, i.e., cell elongation/cell expansion is prevented or reduced by at least 50% over several weeks."}, "H8": {"test_system": "H8", "assay": "soft agar disk diffusion zone of inhibition assay", "type": "cell-based, human", "settings": "25 ug/disk", "from_the_text": "(§2) The following human tumors were used: Human adenosquamous lung tumor H-125 (7) and colon tumors H8, HCT-116, and CX-1 were used for in vitro testing only. Each human cell line was maintained in culture until plating was done. HCT-116, H8, and CX-1 were maintained in McCoy's media and heat inactivated fetal bovine serum (11% FBS). It was passaged (1:5 dilution) twice week following enzymatic dissociation using a trypsin/PBS-EDTA mixture. H-125 was maintained in CMRL/Fischer media (1:1) with 11% FBS. It was mechanically dissociated and passaged (3:10 dilution) weekly. For the plating assay, all cells were mechanically dispersed and diluted in the CMRL/Fischer. media mixture."}, "CX-1": {"test_system": "CX-1", "assay": "soft agar disk diffusion zone of inhibition assay", "type": "cell-based, human", "settings": "25 ug/disk", "from_the_text": "as §2"}, "[5]": {"test_system": "Crandall Feline Kidney cells (CFK cells), uninfected", "assay": "time for complete cell killing, uninfected cells"}, "[6]": {"test_system": "plasma membrane NADH oxidase (tNOX)"}, "[7]": {"test_system": "Crandall Feline Kidney cells infected with Feline Immunodeficiency Virus (FIV)", "assay": "time for complete cell killing, FIV-infected cells"}, "NADH oxidase [8]": {"test_system": "NADH oxidase", "assay": "NADH oxidase activity of soybean hypocotyl plasma membrane vesicles", "type": "biochemical", "settings": "plant soybean hypocotyl tissue, FIG. 11"}, "L1210": {"test_system": "L1210", "assay": "soft agar disk diffusion zone of inhibition assay", "type": "cell-based, mice", "settings": "25 ug/disk"}, "[9]": {"test_system": "porcine pseudorabies virus", "settings": "rabbit kidney cells"}}, "note": "Like-named read-outs stand apart in the source and are kept apart here."}
{"smiles": "CC1=CC(=O)C(O)C2(C)C1CC1OC(=O)C(O)C3C(C)C(O)C4(O)OCC13C42", "note": "(stereo not drawn) [Glaucarubolone, glaucarubolone]", "values": [{"measurement": "ED50, inhibition of NADH oxidase activity", "setting": "NADH oxidase [1]", "result": ">10^−8 M"}, {"measurement": "inhibition of NADH oxidation, in words", "setting": "NADH oxidase [2]; isolated plasma membranes of liver cells, FIG. 10", "result": "inhibits NADH oxidation"}, {"measurement": "EC50", "setting": "NADH oxidase [2]; Rat liver golgi apparatus", "result": "> 10", "unit": "µM"}, {"measurement": "EC50", "setting": "NADH oxidase [2]; Rat liver microsomes", "result": "> 10", "unit": "µM"}, {"measurement": "EC50", "setting": "NADH oxidase [2]; Rat liver plasma membrane", "result": "> 10", "unit": "µM"}, {"measurement": "height of treated plants", "setting": "Sorghum (DeKalb 18)", "result": 12, "unit": "cm"}, {"measurement": "zone of inhibition C38", "setting": "C38", "result": 900, "unit": "ZONE UNITS"}, {"measurement": "solid tumor selectivity in vitro", "setting": "[3]", "result": "demonstrated solid tumor selectivity"}, {"measurement": "plants which survived and did not grow for >50 days", "setting": "[4]; dilution of 1:1000 (2.5×10^−3 oz/A)", "result": "Approximately 10%"}, {"measurement": "time after treatment at which growth resumed", "setting": "[4]; dilution of 1:10,000", "result": "about 30 days"}, {"measurement": "time for which growth was completely stopped", "setting": "[4]; dilution of 1:10,000 (2.5×10^−4 oz/A), plants not killed", "result": "about 3 weeks"}, {"measurement": "effect on plants, in words", "setting": "[4]; dilutions of 1:100 and 1:1000 (10 μl/half pot), treated after 10 days of germination", "result": "herbicidal"}, {"measurement": "zone of inhibition H8", "setting": "H8", "result": 650, "unit": "ZONE UNITS"}, {"measurement": "zone of inhibition CX-1", "setting": "CX-1", "result": 100, "unit": "ZONE UNITS"}, {"measurement": "Time for complete cell killing (>98%), Uninfected", "setting": "[5]; 3 × 10^−4 M", "result": 120, "unit": "h"}, {"measurement": "Time for complete cell killing (>98%), Uninfected", "setting": "[5]; 3 × 10^−5 M", "result": 120, "unit": "h"}, {"measurement": "Time for complete cell killing (>98%), Uninfected", "setting": "[5]; 3 × 10^−6 M", "result": 144, "unit": "h"}, {"measurement": "Time for complete cell killing (>98%), Uninfected", "setting": "[5]; 3 × 10^−7 M", "result": 192, "unit": "h"}, {"measurement": "Time for complete cell killing (>98%), Uninfected", "setting": "[5]; 3 × 10^−8 M", "result": ">192", "unit": "h"}, {"measurement": "Time for complete cell killing (>98%), Uninfected", "setting": "[5]; 3 × 10^−9 M", "result": ">192", "unit": "h"}, {"measurement": "inhibition of NADH oxidation, in words", "setting": "[6]; HeLA (ATCC CCL2 strain), FIG. 10", "result": "inhibits NADH oxidation"}, {"measurement": "effect of redox poise on inhibition of NADH oxidase activity", "setting": "[6]; HeLa cell plasma membranes, FIG. 12", "result": "affected little by redox poise"}, {"measurement": "Time for complete cell killing (>98%), FIV-Infected", "setting": "[7]; 3 × 10^−4 M", "result": ">168", "unit": "h"}, {"measurement": "Time for complete cell killing (>98%), FIV-Infected", "setting": "[7]; 3 × 10^−5 M", "result": ">168", "unit": "h"}, {"measurement": "Time for complete cell killing (>98%), FIV-Infected", "setting": "[7]; 3 × 10^−6 M", "result": ">168", "unit": "h"}, {"measurement": "Time for complete cell killing (>98%), FIV-Infected", "setting": "[7]; 3 × 10^−7 M", "result": ">168", "unit": "h"}, {"measurement": "Time for complete cell killing (>98%), FIV-Infected", "setting": "[7]; 3 × 10^−8 M", "result": ">168", "unit": "h"}, {"measurement": "Time for complete cell killing (>98%), FIV-Infected", "setting": "[7]; 3 × 10^−9 M", "result": ">168", "unit": "h"}, {"measurement": "killing of FIV-infected compared to non-infected CFK cells", "setting": "[7]; FIGS. 6 and 7, Table 3", "result": "differential killing of infected cells"}, {"measurement": "inhibition of NADH oxidation, in words", "setting": "NADH oxidase [8]", "result": "similarly inhibited"}, {"measurement": "zone of inhibition L1210", "setting": "L1210", "result": "25:100 ZONE UNITS"}, {"measurement": "cytopathic effect on non-infected treated control cells", "setting": "[9]; non-infected", "result": "no cytopathic affect"}, {"measurement": "cytopathic effect of porcine pseudorabies virus", "setting": "[9]; visually monitored", "result": "inhibited cytopathic effect"}]}
